Data reported in paper PMC13076199, “Convergent evolution of hexenal isomerases in Lepidoptera and plants” (Nature Ecology & Evolution, 2026).

Molecular target: T1, MsHi-1 (Manduca sexta, UniProt Z9A1Z6DDJ7)
T1 construct: coding region in pGEX-4T-1, N-terminal GST fusion, E. coli BL21 (DE3), GST Sepharose
Assay: Hi activity with and without added FAD, SPME-GC-qToF-MS
Assay type: biochemical
Conditions: 1 mM FAD, 0.2 mM Z3AL, 20 mM Tris-HCl pH 7.0, 20 µg BSA

Cc1cc2nc3c(=O)[nH]c(=O)nc-3n(C[C@H](O)[C@H](O)[C@H](O)COP(=O)(O)OP(=O)(O)OC[C@H]3O[C@@H](n4cnc5c(N)ncnc54)[C@H](O)[C@@H]3O)c2cc1C [flavin adenine dinucleotide]
Hi activity with and without added FAD, SPME-GC-qToF-MS: addition of FAD to enzymatic reactions moderately increased Hi activity across all tested homologues
